≈ marks a conversion by molar mass, not a printed value. Calls of active or inactive are those of the source. No cut-off for these calls is given here.
Tests used:
[1] = test system: Rattus norvegicus; experiment: Ex vivo inhibition of HSP90 in Sprague-Dawley rat assessed as up regulation of HSP70 expression in retina at 10 mg/kg, iv administered for 2 consecutive days and measured 24 hrs post last dose by Western blot analysis; format: functional, organism-based
[2] = test system: Rattus norvegicus; experiment: Ex vivo inhibition of HSP90 in Sprague-Dawley rat assessed as up regulation of HSP70 expression in retina at 10 mg/kg, iv administered for 2 consecutive days and measured 24 hrs post last dose by immunohistochemistry analysis; format: functional, organism-based; conditions: time 3.0 day
[3] = Ocular toxicity in Sprague-Dawley rat retina damage model assessed as induction of retinal cell death at 10 mg/kg, iv administered for 2 consecutive days by TUNEL staining based analysis; format: organism-based; conditions: in vivo, 48 h, time 2 day
[4] = Cmax in rat at 50 mg/kg, po measured upto 24 hrs by LC-MS/MS analysis; format: ADME, organism-based; set-up: route oral, dose 50 mg/kg, time <=24; conditions: in vivo
[5] = biological target: CYP2C9 (Homo sapiens, UniProt P11712); experiment: Inhibition of CYP2C9 in human liver microsomes at 10 uM using diclofenac as substrate preincubated for 5 mins followed by NADPH addition and measured after 20 mins by LC-MS/MS analysis relative to control; format: ADME; conditions: probe diclofenac, time 25 min
[6] = test system: BT-474; experiment: Antiproliferative activity against human BT-474 assessed as reduction in cell viability incubated for 72 hrs by MTT assay; format: functional, cell-based; conditions: BT-474, 72 h
[7] = Ocular toxicity in Sprague-Dawley rat retina damage model assessed as induction of retinal cell death at 20 mg/kg, iv administered for 2 consecutive days by TUNEL staining based analysis; format: organism-based; conditions: in vivo, 48 h, time 2 day
[8] = Intrinsic aqueous solubility of the compound; format: physicochemical
[9] = biological target: CYP2C19 (Homo sapiens, UniProt P33261); experiment: Inhibition of CYP2C19 in human liver microsomes at 10 uM using mephenytoin as substrate preincubated for 5 mins followed by NADPH addition and measured after 20 mins by LC-MS/MS analysis relative to control; conditions: probe mephenytoin
[10] = Distribution coefficient, logD of compound at pH 7.4; format: physicochemical; conditions: octanol/water
[11] = test system: SK-BR-3; experiment: Antiproliferative activity against human SK-BR-3 assessed as reduction in cell viability incubated for 72 hrs by MTT assay; format: functional, cell-based; conditions: SK-BR-3, 72 h
[12] = test system: MCF7; experiment: cells; conditions: Homo sapiens, MCF7, 72 h
[13] = test system: MDA-MB-468; experiment: Antiproliferative activity against human MDA-MB-468 assessed as reduction in cell viability incubated for 72 hrs by MTT assay; format: functional, cell-based; conditions: MDA-MB-468, 72 h
[14] = biological target: Heat shock protein HSP 90-alpha (Homo sapiens, UniProt P07900); experiment: Displacement of FITC-geldanamycin from N-terminal HSP90alpha (unknown origin) after 30 mins by fluorescence polarization competitive binding assay
[15] = Tmax in rat at 50 mg/kg, po measured upto 24 hrs by LC-MS/MS analysis; format: ADME, organism-based; conditions: in vivo
[16] = test system: HCT-116; experiment: cells; conditions: Homo sapiens, HCT-116, 72 h
Description: Antiproliferative activity against human HCT-116 cells assessed as reduction in cell viability incubated for 72 hrs by MTT assay

[17] = biological target: CYP2D6 (Homo sapiens, UniProt P10635); experiment: Inhibition of CYP2D6 in human liver microsomes at 10 uM using dextromethorphan as substrate preincubated for 5 mins followed by NADPH addition and measured after 20 mins by LC-MS/MS analysis relative to control; format: ADME; conditions: probe dextromethorphan, time 25 min
[18] = Apparent volume of distribution in rat at 50 mg/kg, po measured upto 24 hrs by LC-MS/MS analysis; format: ADME, organism-based; conditions: in vivo
[19] = Drug concentration in tumor of mouse xenografted with human HCT-116 cells at 60 mg/kg, iv measured at 48 hrs by LC-MS/MS analysis; conditions: in vivo
[20] = test system: MKN-28; experiment: Antiproliferative activity against human MKN-28 assessed as reduction in cell viability incubated for 72 hrs by MTT assay; format: functional, cell-based; conditions: MKN-28, 72 h
[21] = test system: MV4-11; experiment: Antiproliferative activity against human MV4-11 assessed as reduction in cell viability incubated for 72 hrs by MTT assay; format: functional, cell-based; conditions: MV4-11, 72 h
[22] = test system: K562; experiment: Antiproliferative activity against human K562 assessed as reduction in cell viability incubated for 72 hrs by MTT assay; format: functional, cell-based; conditions: K562, 72 h
[23] = Drug distribution in blood of mouse xenografted with human HCT-116 cells at 60 mg/kg, iv by LC-MS/MS analysis; conditions: in vivo
[24] = Apparent clearance during terminal phase in rat at 10 mg/kg, iv measured upto 24 hrs by LC-MS/MS analysis; format: ADME, organism-based; conditions: in vivo
[25] = biological target: CYP1A2 (Homo sapiens, UniProt P05177); experiment: Inhibition of CYP1A2 in human liver microsomes at 10 uM using phenacetin as substrate preincubated for 5 mins followed by NADPH addition and measured after 20 mins by LC-MS/MS analysis relative to control; format: ADME; conditions: probe phenacetin, time 25 min
[26] = Apparent clearance during terminal phase in rat at 50 mg/kg, po measured upto 24 hrs by LC-MS/MS analysis; format: ADME, organism-based; conditions: in vivo, read-out: CLz/F (converted)
[27] = AUC (0 to t) in rat at 10 mg/kg, iv measured upto 24 hrs by LC-MS/MS analysis; format: ADME, organism-based; set-up: route intravenous, dose 10 mg/kg, time <=24; conditions: in vivo
[28] = Metabolic stability in human liver microsomes assessed as parent compound remaining at 1 uM preincubated for 5 mins followed by NADPH addition and measured up to 120 mins by LC-MS/MS analysis; format: ADME, Microsome; conditions: 2 h, time <=125 min
[29] = test system: U2OS; experiment: Antiproliferative activity against human U2OS assessed as reduction in cell viability incubated for 72 hrs by MTT assay; format: functional, cell-based
[30] = biological target: Endoplasmin (Homo sapiens, UniProt P14625); experiment: Displacement of FITC-geldanamycin from N-terminal GRP94 (unknown origin) after 30 mins by fluorescence polarization competitive binding assay
[31] = Half life in human liver microsomes at 1 uM preincubated for 5 mins followed by NADPH addition and measured up to 120 mins by LC-MS/MS analysis; format: ADME, Microsome; conditions: 2 h, time <=125 min
[32] = biological target: CYP3A4 (Homo sapiens, UniProt P08684); experiment: Inhibition of CYP3A4 in human liver microsomes at 10 uM using midazolam as substrate preincubated for 5 mins followed by NADPH addition and measured after 20 mins by LC-MS/MS analysis relative to control; format: ADME; conditions: probe midazolam, time 25 min
[33] = Permeability of the compound at pH 7.4 by PAMPA; format: ADME; conditions: read-out: permeability
[34] = Apparent volume of distribution in rat at 10 mg/kg, iv measured upto 24 hrs by LC-MS/MS analysis; format: ADME, organism-based; conditions: in vivo, read-out: Vz
[35] = Intrinsic clearance in human liver microsomes at 1 uM preincubated for 5 mins followed by NADPH addition and measured up to 120 mins by LC-MS/MS analysis; format: ADME, Microsome; conditions: 2 h, time <=125 min
[36] = test system: MDA-MB-231; experiment: Antiproliferative activity against human MDA-MB-231 assessed as reduction in cell viability incubated for 72 hrs by MTT assay; format: functional, cell-based; conditions: MDA-MB-231, 72 h
[37] = Oral bioavailability in rat at 50 mg/kg measured upto 24 hrs by LC-MS/MS analysis; format: ADME, organism-based; conditions: in vivo
[38] = test system: L02; experiment: Cytotoxicity against human L02 cells assessed as reduction in cell viability incubated for 72 hrs by MTT assay; format: cell-based; conditions: L02, 72 h
[39] = AUC (0 to t) in rat at 50 mg/kg, po measured upto 24 hrs by LC-MS/MS analysis; format: ADME, organism-based; set-up: route oral, dose 50 mg/kg, time <=24; conditions: in vivo
[40] = Half-life in rat at 50 mg/kg, po measured upto 24 hrs by LC-MS/MS analysis; format: ADME, organism-based; conditions: in vivo
[41] = test system: T47D; experiment: Antiproliferative activity against human T47D assessed as reduction in cell viability incubated for 72 hrs by MTT assay; format: functional, cell-based
[42] = test system: A549; experiment: Antiproliferative activity against human A549 assessed as reduction in cell viability incubated for 72 hrs by MTT assay; format: functional, cell-based; conditions: A549, 72 h
[43] = test system: HepG2; experiment: Antiproliferative activity against human HepG2 assessed as reduction in cell viability incubated for 72 hrs by MTT assay; format: functional, cell-based; conditions: HepG2, 72 h
[44] = Drug distribution in liver of mouse xenografted with human HCT-116 cells at 60 mg/kg, iv by LC-MS/MS analysis; conditions: in vivo
[45] = Drug distribution in spleen of mouse xenografted with human HCT-116 cells at 60 mg/kg, iv by LC-MS/MS analysis; conditions: in vivo
[46] = Half-life in rat at 10 mg/kg, iv measured upto 24 hrs by LC-MS/MS analysis; format: ADME, organism-based; conditions: in vivo

Chain of CYP2D6 (P10635 whole entry): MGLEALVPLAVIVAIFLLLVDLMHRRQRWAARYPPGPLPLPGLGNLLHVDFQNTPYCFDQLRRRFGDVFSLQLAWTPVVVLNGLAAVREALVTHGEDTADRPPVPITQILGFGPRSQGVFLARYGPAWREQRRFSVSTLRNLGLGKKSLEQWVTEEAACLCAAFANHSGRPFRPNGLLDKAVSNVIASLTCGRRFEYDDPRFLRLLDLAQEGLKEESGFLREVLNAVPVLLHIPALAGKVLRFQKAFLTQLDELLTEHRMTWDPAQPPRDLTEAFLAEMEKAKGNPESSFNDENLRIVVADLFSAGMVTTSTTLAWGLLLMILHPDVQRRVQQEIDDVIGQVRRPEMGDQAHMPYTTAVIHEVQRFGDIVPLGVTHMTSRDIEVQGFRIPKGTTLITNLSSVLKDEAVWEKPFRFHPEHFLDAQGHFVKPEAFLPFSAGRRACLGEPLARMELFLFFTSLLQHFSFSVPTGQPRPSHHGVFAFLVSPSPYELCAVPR
Chain of CYP2C9 (P11712 whole entry): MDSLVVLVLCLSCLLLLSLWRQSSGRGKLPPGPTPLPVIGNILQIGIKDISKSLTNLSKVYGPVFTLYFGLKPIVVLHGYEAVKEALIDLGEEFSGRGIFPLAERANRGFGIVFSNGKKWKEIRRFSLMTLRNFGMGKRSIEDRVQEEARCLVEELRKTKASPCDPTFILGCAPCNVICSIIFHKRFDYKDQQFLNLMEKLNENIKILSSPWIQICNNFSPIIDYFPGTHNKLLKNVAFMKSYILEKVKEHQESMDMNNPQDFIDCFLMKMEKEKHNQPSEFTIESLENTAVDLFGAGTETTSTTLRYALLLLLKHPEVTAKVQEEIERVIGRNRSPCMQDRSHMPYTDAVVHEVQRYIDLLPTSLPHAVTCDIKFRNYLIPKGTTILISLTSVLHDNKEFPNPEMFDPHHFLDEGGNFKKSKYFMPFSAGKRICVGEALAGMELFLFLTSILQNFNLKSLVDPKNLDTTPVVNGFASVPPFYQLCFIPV
Chain of CYP2C19 (P33261 whole entry): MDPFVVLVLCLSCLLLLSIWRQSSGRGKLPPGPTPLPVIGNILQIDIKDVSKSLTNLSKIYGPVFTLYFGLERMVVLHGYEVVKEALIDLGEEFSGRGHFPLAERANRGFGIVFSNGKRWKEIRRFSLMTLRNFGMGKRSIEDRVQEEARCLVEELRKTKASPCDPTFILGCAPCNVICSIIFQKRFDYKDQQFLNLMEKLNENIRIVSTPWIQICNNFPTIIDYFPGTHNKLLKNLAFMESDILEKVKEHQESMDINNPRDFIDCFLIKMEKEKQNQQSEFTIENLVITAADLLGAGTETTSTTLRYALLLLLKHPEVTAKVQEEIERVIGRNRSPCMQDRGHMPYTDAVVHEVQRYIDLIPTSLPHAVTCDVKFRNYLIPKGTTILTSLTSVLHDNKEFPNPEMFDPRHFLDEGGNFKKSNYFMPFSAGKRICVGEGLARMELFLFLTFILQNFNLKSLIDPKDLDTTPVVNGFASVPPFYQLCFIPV
Chain of CYP1A2 (P05177 whole entry): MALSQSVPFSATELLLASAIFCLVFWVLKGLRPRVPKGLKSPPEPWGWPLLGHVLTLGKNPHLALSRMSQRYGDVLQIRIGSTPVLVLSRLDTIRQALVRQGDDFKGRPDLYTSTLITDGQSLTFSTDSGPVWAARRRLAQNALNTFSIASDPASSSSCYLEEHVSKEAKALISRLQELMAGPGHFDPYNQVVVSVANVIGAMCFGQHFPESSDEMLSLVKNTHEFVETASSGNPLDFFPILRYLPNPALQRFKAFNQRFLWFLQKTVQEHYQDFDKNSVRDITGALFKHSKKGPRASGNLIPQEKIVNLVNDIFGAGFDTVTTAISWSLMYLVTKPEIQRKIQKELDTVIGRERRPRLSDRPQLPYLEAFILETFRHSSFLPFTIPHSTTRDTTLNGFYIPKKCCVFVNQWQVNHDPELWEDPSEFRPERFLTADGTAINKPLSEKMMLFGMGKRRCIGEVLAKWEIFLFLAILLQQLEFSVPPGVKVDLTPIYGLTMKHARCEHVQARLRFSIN
Chain of Endoplasmin (P14625 whole entry): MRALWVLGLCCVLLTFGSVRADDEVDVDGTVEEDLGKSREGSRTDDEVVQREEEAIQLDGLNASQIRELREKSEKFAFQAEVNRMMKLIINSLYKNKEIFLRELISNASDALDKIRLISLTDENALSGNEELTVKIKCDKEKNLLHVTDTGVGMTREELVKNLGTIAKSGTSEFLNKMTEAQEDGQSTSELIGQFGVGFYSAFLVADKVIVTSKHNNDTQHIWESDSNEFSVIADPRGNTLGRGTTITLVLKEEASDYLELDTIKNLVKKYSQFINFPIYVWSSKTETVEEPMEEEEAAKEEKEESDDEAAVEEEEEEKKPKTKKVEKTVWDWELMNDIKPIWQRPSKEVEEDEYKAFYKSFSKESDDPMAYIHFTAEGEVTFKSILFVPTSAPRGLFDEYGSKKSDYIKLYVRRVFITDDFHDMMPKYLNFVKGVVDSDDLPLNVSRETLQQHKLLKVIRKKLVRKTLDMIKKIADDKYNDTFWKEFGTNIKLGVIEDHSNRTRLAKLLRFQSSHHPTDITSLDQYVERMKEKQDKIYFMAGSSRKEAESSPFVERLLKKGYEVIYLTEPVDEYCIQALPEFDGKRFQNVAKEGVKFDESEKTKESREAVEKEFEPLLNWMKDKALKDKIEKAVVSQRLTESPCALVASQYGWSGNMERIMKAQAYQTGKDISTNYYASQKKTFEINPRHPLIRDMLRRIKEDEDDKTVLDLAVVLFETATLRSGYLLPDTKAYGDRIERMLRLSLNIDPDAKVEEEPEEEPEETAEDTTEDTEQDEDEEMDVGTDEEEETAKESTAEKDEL
Chain of CYP3A4 (P08684 whole entry): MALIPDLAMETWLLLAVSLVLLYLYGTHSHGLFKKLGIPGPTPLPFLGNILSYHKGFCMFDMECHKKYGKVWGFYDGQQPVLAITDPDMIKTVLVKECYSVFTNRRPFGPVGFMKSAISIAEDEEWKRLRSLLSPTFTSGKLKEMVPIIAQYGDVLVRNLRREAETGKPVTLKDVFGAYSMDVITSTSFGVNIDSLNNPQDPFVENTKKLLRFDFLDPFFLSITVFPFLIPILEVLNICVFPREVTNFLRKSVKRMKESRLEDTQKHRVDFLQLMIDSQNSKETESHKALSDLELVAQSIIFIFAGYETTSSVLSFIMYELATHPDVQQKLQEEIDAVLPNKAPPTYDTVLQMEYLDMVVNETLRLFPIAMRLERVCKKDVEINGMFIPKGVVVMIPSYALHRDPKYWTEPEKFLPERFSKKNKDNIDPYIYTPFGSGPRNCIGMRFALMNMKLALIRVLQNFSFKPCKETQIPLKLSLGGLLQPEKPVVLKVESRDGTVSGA

CCNC(=O)c1noc(-c2cc(C(C)C)c(O)cc2O)c1-c1ccc(CN2CCOCC2)cc1 [LUMINESPIB]
inhibition [1]: Active | inhibition [2]: Active | Activity [3]: Toxic

CCNc1nc(OCCOC)nc2c1CN(C(=O)c1cc(C(C)C)c(O)cc1O)CC2
Cmax [4]: 72.6 ng/mL | inhibition at 20 min, 10 µM [5]: 36% | IC50 [6]: 95 nM | Activity [7]: Non-Toxic | solubility [8]: 192 µg/mL (≈ 447 µM) | inhibition at 20 min, 10 µM [9]: 21% | logD [10]: 2.32 | IC50 [11]: 243 nM | IC50 [12]: 100 nM | IC50 [13]: 135 nM | IC50 [14]: 28 nM | Tmax [15]: 0.5 h | IC50 [16]: 140 nM | inhibition at 20 min, 10 µM [17]: 48% | Vz [18]: 1620.19 L/kg | Ct [19]: > 3 uM/L | IC50 [20]: 434 nM | IC50 [21]: 27 nM | IC50 [22]: 119 nM | Drug uptake [23]: Active | CLz/F [24]: 87.5 mL/min/kg | inhibition at 20 min, 10 µM [25]: 8% | CL/F [26]: 2060 mL/min/kg | AUC(0-t) at 24 h [27]: 1930 ng·h/mL | Stabilty [28]: 90.4% | IC50 [29]: 52 nM | IC50 [30]: 729 nM | t1/2 [31]: 3.53 h | inhibition at 20 min, 10 µM [32]: 22% | Papp [33]: 71.5 ×10⁻⁶ cm/s | Vd [34]: 29.6 L/kg | CLint [35]: 4.45 mL/min/kg | IC50 [36]: 119 nM | bioavailability [37]: 4.23% | IC50 [38]: 34000 nM | AUC(0-t) at 24 h [39]: 409 ng·h/mL | half-life [40]: 9.4 h | IC50 [41]: 195 nM | IC50 [42]: 194 nM | IC50 [43]: 153 nM | Drug uptake [44]: Active | Drug uptake [45]: Active | half-life [46]: 3.95 h

From ChEMBL document CHEMBL4706476, “Novel Tetrahydropyrido[4,3-d]pyrimidines as Potent Inhibitors of Chaperone Heat Shock Protein 90” (J Med Chem, 2016)
